Results from patent US7915393B2 (Corixa Corporation, priority 2001, dated 2011).
Marks after values point to notes of the source that are not given here.

Experiments:
[1] = tested on: T cells of immunized B6 mice; test: Proliferative T cell responses of immunized mice, thymidine incorporation assay; format: in vivo; conditions: for stimulation index (SI), proliferative T cell response: mice immunized with WT1 peptides, thymidine incorporation (FIGS. 5A-5C)
Protocol: Peptides were dissolved in 1 ml sterile water for injection, and B6 mice were immunized 3 times at time intervals of three weeks. Adjuvants used were CFA/IFA, GM-CSF, and MONTANIDE®. […] In particular, lymphocytes were cultured in 96-well plates at 2×10^5 cells per well with 4×10^5 irradiated (3000 rads) syngeneic spleen cells and the designated peptide.

[2] = tested on: mouse B6 class I antigens (D^b or K^b molecules on the surface of RMA-S cells); test: Peptide binding to C57Bl/6 murine class I MHC using RMA-S cells (flow cytometry); format: cell-based; conditions: 9-mer peptides within p117-139
Protocol: In brief, RMA-S cells were cultured for 7 hours at 26° C. in complete medium supplemented with 1% FCS. A total of 10^6 RMA-S cells were added into each well of a 24-well plate and incubated either alone or with the designated peptide (25 ug/ml) for 16 hours at 26° C. and additional 3 hours at 37° C. in complete medium. Cells were then washed three times and stained with fluorescein isothiocyanate-conjugated anti D^b or anti-K^b antibody (PharMingen, San Diego, Calif.). Labeled cells were washed twice, resuspended and fixed in 500 ul of PBS with 1% paraformaldehyde and analyzed for fluorescence intensity in a flow cytometer (Becton-Dickinson FACSCALIBUR™). The percentage of increase of D^b or K^b molecules on the surface of the RMA-S cells was measured by increased mean fluorescent intensity of cells incubated with peptide compared with that of cells incubated in medium alone.

[3] = tested on: targets incubated with WT1 peptides (EL-4) and WT1 positive tumor cells (TRAMP-C, BLK-SV40); test: CTL from mice immunized with WT1 peptides, chromium release assay; format: in vivo, B6 mice; conditions: for lysis of WT1 positive tumor cells by peptide specific CTL / generation of peptide specific CTL following immunization: chromium release; for lysis of WT1 positive tumor cells by peptide specific CTL: WT1 positive tumor cell lines (TRAMP-C, BLK-SV40); for generation of peptide specific CTL following immunization: spleen cells stimulated in vitro with peptide
Protocol: CTL were evaluated with a standard chromium release assay (Chen et al., Cancer Res. 54:1065-1070, 1994). 10^6 target cells were incubated at 37° C. with 150 μCi of sodium ^51Cr for 90 minutes, in the presence or absence of specific peptides. Cells were washed three times and resuspended in RPMI with 5% fetal bovine serum. For the assay, 10^4 51Cr-labeled target cells were incubated with different concentrations of effector cells in a final volume of 200 μl in U-bottomed 96-well plates. Supernatants were removed after 4 to 7 hours at 37° C., and the percentage specific lysis was determined by the formula: % specific lysis=100×(experimental release−spontaneous release)/(maximum release−spontaneous release).
P117-139, a peptide with motifs appropriate for binding to class I and class II MHC, was identified as described above using TSITES and BIMAS HLA peptide binding prediction analyses. Mice were immunized as described in Example 3. […] CTL were evaluated with a standard chromium release assay.

[4] = tested on: WT1-specific CD8+ T cell clone and T cell line; test: HLA-A2 peptide-MHC tetramer staining of WT1 specific T cells (flow cytometry); format: cell-based, human
[5] = Clinical chemistry and hematology analysis, WT1 dose titration study; format: in vivo; conditions: mice immunized with WT1 protein
From the text: Special emphasis was put on evaluation of potential hematopoietic toxicity.

[6] = tested on: WT1 specific CD8+ T-cell clone; test: IFN-γ ELISPOT recognition by human WT1 specific CD8+ T-cell clone (whole gene priming); format: cell-based; conditions: HLA-A2 restricted clone
CD4 cells of splenocytes = test: Intracellular interferon-gamma staining of CD4 cells (FACS) after immunization with WT-1 protein constructs; format: in vivo; conditions: C57BL/6 mice
Protocol: Groups of four C57BL/6 mice were immunized subcutaneously with 20 μg WT-1 proteins: WT-1-F or WT-1 full length (FL), with Ra12, HIS or TAT fusions. Immunizations were performed at weeks 0, 3 and 9, and spleens were harvested at week 11. Splenocytes were then stimulated in vitro for 6 hours with medium alone, with a 15-mer peptide “p32” ([…], amino acids 125-139 of WT-1; found within the p117-139 peptide set forth in SEQ ID NO:2), with the DC2.4-WT-1/LAMP cell line, or with rRa12. CD4 cells were then stained for intracellular interferon-gamma and quantified by FACS analysis. A portion of these splenocytes were then stimulated in vitro for 8 days, after which CD4+ IFN+ cells were enumerated. After the 6 hour stimulation with p32, 0.33% of CD4-positive cells were positive for intracellular IFN-gamma staining in mice immunized with the truncated N-terminal construct rWT1-F-TAT. By contrast, only 0.10% of CD4-positive cells stained positive for intracellular IFN-gamma in mice immunized with rWT1-FL-TAT. […] By contrast, 0.24% of CD4-positive cells from mice immunized with the full-length WT1-TAT construct stained positive for intracellular IFN-gamma.

human cells = test: Cellular cytotoxicity of WT1-ubiquitin fusion expressed in human cells; format: cell-based; conditions: compared with native WT1
From the text: The human ubiquitin open reading frame (SEQ ID NO:384) was mutated such that the nucleotides encoding the last amino acid encode an alanine instead of a glycine. […] The G->A mutation prevents co-translational cleavage of the […] protein by the proteases that normally process poly-ubiquitin during translation. The DNA and predicted amino acid sequence for the resulting construct are set forth in SEQ ID NOs:385 and 410, respectively. […] The resulting protein is predicted to be targeted to the proteosome by virtue of the added ubiquitin molecule.

[7] = tested on: DC2.4 A2/Kb cells pulsed with peptides; test: Identification of CTL epitope: chromium release with peptide pulsed DC2.4 A2/Kb cells; format: in vivo; conditions: HLA-A2/Kb transgenic mice

RDLNALLPAVPSLGGGG [p6-22]
stimulation index (SI), proliferative T cell response [1]: 2.3

NAPYLPSCL
binding to H-2^b class I molecules [2]: bind to H-2^b class I molecules
lysis of targets incubated with 9-mer peptide by CTL generated by immunization with p117-139 ([3]; EL-4 pulsed with peptide, E:T 25:1 (FIG. 13A)): lysed targets
peptide specific lysis after restimulation of the p117-139 specific CTL line with the 9-mer ([3]; FIGS. 13B and 13C): demonstrated peptide specific lysis
lysis of WT1 positive tumor cells by peptide specific CTL [3]: showed lysis of a WT1 positive tumor cell line

GATLKGVAAGSSSSVKWTE [p244-262]
stimulation indices (SI), proliferative T cell response to the immunizing peptides ([1]; Vaccine A immunized mice, bulk lines, peptide 25 ug/ml, 96 hr (FIG. 6A)): No proliferative response

WT1 p39-47: irrelevant HLA-A2 peptide used as tetramer control (DFAPPGASA; UniProt P19544 39-47, looked up, fragment)
staining of the WT1-specific CD8+ T cell clone by HLA-A2 tetramers incubated with an excess of the peptide [4]: did not stain the CD8+ T cell clone

SCLESQPAI
generation of peptide specific CTL following immunization [3]: peptide specific CTL lines were generated

WT1 protein: WT1 protein used for immunization in a multiple dose titration in mice
blood cell counts and blood chemistry (BUN, creatinine, bilirubin, albumin, globulin) [5]: within the normal range
WT1-specific antibody response (MPL-SE as adjuvant, doses 25 μg, 100 μg to 1000 μg WT1 protein, female C57/B6 mice (FIG. 19)): strong WT1-specific antibody response
cellular T-cell responses (MPL-SE as adjuvant, doses 25 μg, 100 μg to 1000 μg WT1 protein, female C57/B6 mice (FIG. 20)): cellular T-cell responses
myeloid/erythroid ratio in sternum and femur marrow (mice immunized with WT1 protein): normal
systemic histopathological or toxicological effects of immunization (mice, multiple dose titration): No systemic histopathological or toxicological effects

QWAPVLDFAPPGASA [peptide 9]
recognition by WT1 specific CD8+ T-cell clone (ELISPOT) [6]: recognized

CMTWNQMNL
lysis of WT1 positive tumor cells by peptide specific CTL [3]: failed to lyse cell lines that expressed WT1 proteins
generation of peptide specific CTL following immunization ([3]; listed as p235-243): peptide specific CTL lines were generated

VLDFAPPGAS
recognition by WT1 specific CD8+ T-cell clone (ELISPOT) [6]: specifically recognized

p136-144: 9-mer class I MHC binding peptide; human or mouse form not stated at this place (SCLESQPAI; UniProt P19544 136-144, looked up, fragment)
generation of peptide specific CTL following immunization [3]: CTL were generated

rWT1-FL-TAT: full-length WT1 as TAT fusion
CD4-positive cells positive for intracellular IFN-gamma staining (CD4 cells of splenocytes; 20 μg s.c. weeks 0, 3 and 9, 6 hour stimulation with p32): 0.10%
CD4+ cells with IFN-gamma staining (CD4 cells of splenocytes; 20 μg s.c., after the 8 day stimulation): 0.24%

LDFAPPGAS
staining of the WT1-specific CD8+ T cell clone by HLA-A2 tetramers incubated with an excess of the peptide [4]: did not stain the CD8+ T cell clone

VRRVSGVAPTLVRS [Peptide P299-313]
stimulation index (SI), proliferative T cell response [1]: 3.3

NLYQMTSQL
generation of peptide specific CTL following immunization [3]: not

WT1-Ubiquitin fusion: mutated (G->A) human ubiquitin fused upstream of a splice variant of human WT1
cellular cytotoxicity when expressed in human cells (human cells): decreased cellular cytotoxicity

VLDFAPPGA
recognition by WT1 specific CD8+ T-cell clone (ELISPOT) [6]: specifically recognized
staining of the WT1-specific CD8+ T cell clone by HLA-A2 tetramers incubated with an excess of the peptide [4]: specifically stained the CD8+ T cell clone

ALLPAVPSL
generation of peptide specific CTL following immunization [3]: peptide specific CTL lines were generated
WT1 immunized animals with CTL responses to the peptide [7]: 4 of 5

VLDFAPPGASAYGSL [peptide 10]
recognition by WT1 specific CD8+ T-cell clone (ELISPOT) [6]: recognized
